Source: the NIST ThermoML archive (doi:10.1016/j.jct.2017.06.001)

Assay: xn = mol fraction of the nth substance listed
Conditions: 318.15 K, 100 kPa, Liquid; for speed of sound: Frequency=5 MHz, Pulse-echo method; for mass density: Vibrating tube method

OCCCCCO [1,5-pentanediol] + O
Conditions | mass density [kg/m3] | speed of sound [m/s]
x1 = 0.005 | 989.65 | –
x1 = 0.0101 | 989.41 | –
x1 = 0.0196 | 989.31 | –
x1 = 0.0251 | 989.53 | –
x1 = 0.0304 | 989.77 | –
x1 = 0.05 | 990.21 | –
x1 = 0.0769 | 990.38 | –
x1 = 0.1002 | 990.62 | –
x1 = 0.1438 | 990.42 | –
x1 = 0.1836 | – | 1646.1
x1 = 0.1845 | 989.72 | –
x1 = 0.1877 | – | 1645.8
x1 = 0.1923 | – | 1645.5
x1 = 0.1928 | – | 1645.4
x1 = 0.1977 | – | 1645
x1 = 0.2017 | – | 1644.7
x1 = 0.2025 | – | 1644.6
x1 = 0.2049 | – | 1644.4
x1 = 0.2132 | – | 1643.6
x1 = 0.2224 | – | 1642.7
x1 = 0.2331 | – | 1641.6
x1 = 0.2482 | – | 1640
x1 = 0.2503 | 988.52 | –
x1 = 0.2698 | – | 1637.7
x1 = 0.2859 | – | 1635.9
x1 = 0.2955 | – | 1634.9
x1 = 0.3 | 987.37 | –
x1 = 0.312 | – | 1633
x1 = 0.3191 | – | 1632.2
x1 = 0.3343 | 986.64 | –
x1 = 0.3352 | – | 1630.3
x1 = 0.3499 | – | 1628.6
x1 = 0.3678 | – | 1626.5
x1 = 0.3857 | – | 1624.3
x1 = 0.4054 | – | 1621.9
x1 = 0.4171 | 985.02 | –
x1 = 0.4216 | – | 1619.8
x1 = 0.4392 | – | 1617.6
x1 = 0.4494 | – | 1616.3
x1 = 0.454 | 984.19 | –
x1 = 0.4703 | – | 1613.5
x1 = 0.4894 | – | 1611
x1 = 0.5003 | 983.3 | –
x1 = 0.5038 | – | 1609.1
x1 = 0.5212 | – | 1606.7
x1 = 0.5362 | 982.6 | –
x1 = 0.5442 | – | 1603.6
x1 = 0.565 | – | 1600.8
x1 = 0.5841 | – | 1598.3
x1 = 0.6039 | – | 1595.7
x1 = 0.6177 | 981.2 | –
x1 = 0.6258 | – | 1592.8
x1 = 0.6425 | – | 1590.6
x1 = 0.6478 | 980.7 | –
x1 = 0.6602 | – | 1588.3
x1 = 0.6789 | – | 1586
x1 = 0.6988 | – | 1583.5
x1 = 0.7025 | 979.9 | –
x1 = 0.7197 | – | 1581
x1 = 0.7436 | – | 1578.2
x1 = 0.7504 | 979.2 | –
x1 = 0.7664 | – | 1575.6
x1 = 0.7919 | – | 1572.7
x1 = 0.7927 | 978.5 | –
x1 = 0.8187 | – | 1569.8
x1 = 0.8416 | – | 1567.3
x1 = 0.8605 | 977.4 | –
x1 = 0.864 | – | 1564.8
x1 = 0.8864 | – | 1562.4
x1 = 0.9004 | 976.7 | –
x1 = 0.9086 | – | 1560
x1 = 0.926 | – | 1558
x1 = 0.9413 | – | 1556.3
x1 = 0.9573 | – | 1554.4
x1 = 0.971 | – | 1552.7
x1 = 0.9808 | – | 1551.5
x1 = 0.9903 | – | 1550.3
x1 = 0.9952 | – | 1549.7
x1 = 1 | – | 1549
